Structures are written as SMILES. Calls of active or inactive are those of the source. How the calls were made is not given here.

This data set deals with CCRIS mutagenicity, Ames/micronucleus/aberration tests. Description: CCRIS mutagenicity studies.
The mark [1] stands for this setting: Test System: AMES SALMONELLA TYPHIMURIUM, Strain/Indicator: TA98, Metabolic Activation: NONE, Method: STANDARD PLATE.
The mark [2] stands for this setting: Test System: AMES SALMONELLA TYPHIMURIUM, Strain/Indicator: TA100, Metabolic Activation: NONE, Method: STANDARD PLATE.

Regarding `CC(C)COP(=S)(OCC(C)C)SCCl`, the mutagenic call by setting is: (Test System: AMES SALMONELLA TYPHIMURIUM, Strain/Indicator: TA98, Metabolic Activation: NONE) “inactive; negative”; under setting [1], “inactive; negative”; (Test System: AMES SALMONELLA TYPHIMURIUM, Strain/Indicator: TA98, Metabolic Activation: RAT, LIVER, S-9, SODIUM PHENOBARBITAL, Method: STANDARD PLATE) “inactive; negative”; (Test System: AMES SALMONELLA TYPHIMURIUM, Strain/Indicator: TA98, Metabolic Activation: S-9) “inactive; negative”; (Test System: AMES SALMONELLA TYPHIMURIUM, Strain/Indicator: TA100, Metabolic Activation: NONE) “inactive; negative”; under setting [2], “inactive; negative”. For the same compound, the mutagenic call (Test System: AMES SALMONELLA TYPHIMURIUM, Strain/Indicator: TA100, Metabolic Activation: RAT, LIVER, S-9, SODIUM PHENOBARBITAL, Method: STANDARD PLATE) was “inactive; negative”; the mutagenic call (Test System: AMES SALMONELLA TYPHIMURIUM, Strain/Indicator: TA100, Metabolic Activation: S-9) is “inactive; negative”; the mutagenic call (Test System: E. COLI, Strain/Indicator: WP2, Metabolic Activation: NONE) is “inactive; negative”; the mutagenic call (Test System: E. COLI, Strain/Indicator: WP2, Metabolic Activation: RAT, LIVER, S-9, SODIUM PHENOBARBITAL, Method: STANDARD PLATE) was “inactive; negative”; the mutagenic call (Test System: E. COLI, Strain/Indicator: WP2, Metabolic Activation: S-9) was “inactive; negative”; the mutagenic call (Test System: E. COLI, Strain/Indicator: WP2 UVRA, Metabolic Activation: NONE) was “inactive; negative”. Besides, the mutagenic call was “inactive; negative” (Test System: E. COLI, Strain/Indicator: WP2 UVRA, Metabolic Activation: RAT, LIVER, S-9, SODIUM PHENOBARBITAL, Method: STANDARD PLATE) and “inactive; negative” (Test System: E. COLI, Strain/Indicator: WP2 UVRA, Metabolic Activation: S-9).
Consider `C[N+](C)(CF)CCO`, for which the mutagenic call is “inactive; negative” (Test System: Mouse lymphoma, Strain/Indicator: L5178Y (tk+/tk-), Metabolic Activation: None, Method: Suspension/plate) and “inactive; negative” (Test System: Mouse lymphoma, Strain/Indicator: L5178Y (tk+/tk-), Metabolic Activation: Rat, Liver, S-9, Aroclor 1254, Method: Suspension/plate).
Regarding `C[n+]1ccc(-c2ccccn2)cc1`, the mutagenic call (Test System: AMES SALMONELLA TYPHIMURIUM, Strain/Indicator: TA97, Metabolic Activation: RAT, LIVER, S-9, PHENOBARBITAL, Method: STANDARD PLATE) was “inactive; negative”; the mutagenic call (Test System: AMES SALMONELLA TYPHIMURIUM, Strain/Indicator: TA98, Metabolic Activation: RAT, LIVER, S-9, PHENOBARBITAL, Method: STANDARD PLATE) is “active; positive”; the mutagenic call (Test System: AMES SALMONELLA TYPHIMURIUM, Strain/Indicator: TA100, Metabolic Activation: RAT, LIVER, S-9, PHENOBARBITAL, Method: STANDARD PLATE) was “inactive; negative”; the mutagenic call (Test System: AMES SALMONELLA TYPHIMURIUM, Strain/Indicator: TA1535, Metabolic Activation: RAT, LIVER, S-9, PHENOBARBITAL, Method: STANDARD PLATE) was “inactive; negative”; the mutagenic call (Test System: AMES SALMONELLA TYPHIMURIUM, Strain/Indicator: TA1537, Metabolic Activation: RAT, LIVER, S-9, PHENOBARBITAL, Method: STANDARD PLATE) was “inactive; negative”; the mutagenic call (Test System: AMES SALMONELLA TYPHIMURIUM, Strain/Indicator: TA1538, Metabolic Activation: RAT, LIVER, S-9, PHENOBARBITAL, Method: STANDARD PLATE) was “inactive; negative”.
Take `O=C(Cl)c1ccccc1`: the mutagenic call runs as follows: (Test System: AMES SALMONELLA TYPHIMURIUM, Strain/Indicator: TA98, Metabolic Activation: NONE, Method: 0-1000 UG/PLATE) “active; positive”; (Test System: AMES SALMONELLA TYPHIMURIUM, Strain/Indicator: TA98, Metabolic Activation: RAT LIVER S-9, PCB, Method: PREINCUBATION) “active; positive”; (Test System: AMES SALMONELLA TYPHIMURIUM, Strain/Indicator: TA100, Metabolic Activation: NONE, Method: PREINCUBATION) “active; positive”; under setting [2], “active; positive”; (Test System: AMES SALMONELLA TYPHIMURIUM, Strain/Indicator: TA100, Metabolic Activation: RAT LIVER S-9, PCB, Method: PREINCUBATION) “active; positive”; (Test System: AMES SALMONELLA TYPHIMURIUM, Strain/Indicator: TA104, Metabolic Activation: NONE, Method: PREINCUBATION) “active; positive”. In addition, the mutagenic call was “active; positive” (Test System: AMES SALMONELLA TYPHIMURIUM, Strain/Indicator: TA104, Metabolic Activation: RAT LIVER S-9, PCB, Method: PREINCUBATION); “active; positive” (Test System: E.COLI, Strain/Indicator: WP2 UVRA, Metabolic Activation: NONE, Method: PREINCUBATION); “active; positive” (Test System: E.COLI, Strain/Indicator: WP2 UVRA, Metabolic Activation: RAT LIVER S-9, PCB, Method: PREINCUBATION).
Consider `[As]`, for which the mutagenic call is “active; positive (structural changes) ; all subjects showed arsenic-related skin lesions” (End Point: IN VIVO CHROMOSOMAL ABERRATIONS, Test System: BLOOD LYMPHOCYTES, Species: HUMAN, Strain/Sex: MALE, FEMALE, Route: ORAL, DRINKING WATER); “active; positive; exact form of arsenic not given: significant increase in exposed indiv” (End Point: IN VIVO CHROMOSOMAL ABERRATIONS, Test System: PERIPHERAL BLOOD LYMPHOCYTES, Species: HUMAN, Strain/Sex: MALE, FEMALE, Route: DRINKING WATER); “active; positive; environmental exposure from drinking water” (End Point: IN VIVO MICRONUCLEUS, Test System: PERIPHERAL BLOOD LYMPHOCYTES, Species: HUMAN, Strain/Sex: MALE, FEMALE, Route: ORAL, DRINKING WATER); “inactive; negative” (End Point: In vivo micronucleus, Test System: Peripheral lymphocytes, Species: Human, Strain/Sex: Male, Route: Inhalation (Occupational)).
As to `O=C1c2ccccc2Cc2ccccc21`, the mutagenic call runs as follows: under setting [1], “active; positive”; under setting [2], “inactive; negative”; (Test System: AMES SALMONELLA TYPHIMURIUM, Strain/Indicator: TA100, Metabolic Activation: RAT, LIVER, S-9, AROCLOR 1254, Method: STANDARD PLATE) “inactive; negative”.

Values taken from PubChem BioAssay AID1259407 (Chemical Carcinogenesis Research Information System (CCRIS), 2018).
